Data from the supplement of paper PMC11061612.

Experiments:
Experiment in all cases: Bliss excess, mean over the matrix (fraction); higher = more synergy
GAK (Melanoma) = tested on: GAK (Melanoma)
Method in brief: (§1)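 Bliss excess equals the observed combination effect minus the expected value EA + EB − EA·EB, where EA and EB are the effects of each agent alone. Combination Emax is the second-highest inhibition within the matrix. Inhibition was scaled from CellTiter-Glo 2.0 luminescence, with 0 set by vehicle wells and 1 by blank wells, after 72 hours of two-drug dosing of cells plated in 1536-well plates.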

[1] = tested on: SCC-4 (Oral Cavity Carcinoma)
Method in brief: as §1

WM35 (Melanoma) = tested on: WM35 (Melanoma)
Method in brief: as §1

AM-38 (Glioblastoma) = tested on: AM-38 (Glioblastoma)
Method in brief: as §1

[2] = tested on: Raji (Burkitt's Lymphoma)
Method in brief: as §1

[3] = tested on: BHT-101 (Thyroid Gland Carcinoma)
Method in brief: as §1

[4] = tested on: NAMALWA (Burkitt's Lymphoma)
Method in brief: as §1

[5] = tested on: NCI-H1963 (Small Cell Lung Carcinoma)
Method in brief: as §1

[6] = tested on: CL-11 (Colorectal Carcinoma)
Method in brief: as §1

[7] = tested on: OAW-28 (Ovarian Carcinoma)
Method in brief: as §1

[8] = tested on: NMC-G1 (Low Grade Glioma)
Method in brief: as §1

[9] = tested on: NCI-H596 (Other Solid Carcinomas)
Method in brief: as §1

[10] = tested on: SNU-C2B (Colorectal Carcinoma)
Method in brief: as §1

[11] = tested on: KP-4 (Pancreatic Carcinoma)
Method in brief: as §1

[12] = tested on: IA-LM (Non-Small Cell Lung Carcinoma)
Method in brief: as §1

SK-N-SH (Neuroblastoma) = tested on: SK-N-SH (Neuroblastoma)
Method in brief: as §1

[13] = tested on: SK-CO-1 (Colorectal Carcinoma)
Method in brief: as §1

NB1 (Neuroblastoma) = tested on: NB1 (Neuroblastoma)
Method in brief: as §1

[14] = tested on: P30-OHK (B-Lymphoblastic Leukemia)
Method in brief: as §1

[15] = tested on: SKG-IIIa (Cervical Carcinoma)
Method in brief: as §1

SMILES	Bliss excess (GAK (Melanoma))	Bliss excess [1]	Bliss excess (WM35 (Melanoma))	Bliss excess (AM-38 (Glioblastoma))	Bliss excess [2]	Bliss excess [3]	Bliss excess [4]	Bliss excess [5]	Bliss excess [6]	Bliss excess [7]	Bliss excess [8]	Bliss excess [9]	Bliss excess [10]	Bliss excess [11]	Bliss excess [12]	Bliss excess (SK-N-SH (Neuroblastoma))	Bliss excess [13]	Bliss excess (NB1 (Neuroblastoma))	Bliss excess [14]	Bliss excess [15]
CC1(C)CCC(CN2CCN(c3ccc(C(=O)NS(=O)(=O)c4ccc(NCC5CCOCC5)c([N+](=O)[O-])c4)c(Oc4cnc5[nH]ccc5c4)c3)CC2)=C(c2ccc(Cl)cc2)C1 [Venetoclax] + Cn1cnc2c(F)c(Nc3ccc(Br)cc3Cl)c(C(=O)NOCCO)cc21 [Selumetinib] (first compound max 1 µM, 7x7, partner max 3 µM)	0.0238	-0.0931	0.0543	-0.108	-0.003	-0.0959	0.0019	0.0788	-0.0494	0.0047	-0.0531	-0.0764	-0.0107	-0.0521	-0.0248	0.083	0.001	-0.0466	0.036	-0.0275
CC1(C)CCC(CN2CCN(c3ccc(C(=O)NS(=O)(=O)c4ccc(NCC5CCOCC5)c([N+](=O)[O-])c4)c(Oc4cnc5[nH]ccc5c4)c3)CC2)=C(c2ccc(Cl)cc2)C1 [Venetoclax] + C[C@@H](Nc1cc(F)cc(F)c1)c1cc(C(=O)N(C)C)cc2c(=O)cc(N3CCOCC3)oc12 [AZD8186] (first compound max 1 µM, 7x7, partner max 3 µM)	-0.0325	-0.119	-0.0332	-0.0259	0.0114	0.0031	0.0287	0.21	-0.0397	0.0551	-0.0256	-0.0378	-0.0408	-0.0205	-0.0416	0.0249	-0.0782	-0.047	0.149	-0.0248
CCc1c2c(nc3ccc(O)cc13)-c1cc3c(c(=O)n1C2)COC(=O)[C@]3(O)CC [SN-38] + O=C(c1cc(Cc2n[nH]c(=O)c3ccccc23)ccc1F)N1CCN(C(=O)C2CC2)CC1 [Olaparib] (first compound max 0.3 µM, 7x7, partner max 10 µM)	0.0227	0.0071	0.0733	-0.0023	0.0342		0.0571	0.099	0.0626		-0.0071		0.0556	0.0777	0.053	0.0739	0.0147		0.0708	0.0602
Cc1c2c(nn1C)CSCc1cc(n(C)n1)CSc1cc(c3ccccc3c1)OCCCc1c(C(=O)O)n(C)c3c-2c(Cl)ccc13 [AZD5991] + CN(C)CCCOc1ccc(-c2ccc3ncc4c(c3c2)n(C2CCOCC2)c(=O)n4C)cn1 [AZD0156] (first compound max 1 µM, 7x7, partner max 1 µM)	0.0152	-0.0232	0.0155	0.0291	-0.0213	0.0638	-0.0079	0.0225	-0.0081	0.0335	-0.0387	-0.0088	0.0051	0.0187	-0.0333	0.0204	-0.0182	-0.0522	-0.0042	0.0104
CC1(C)CCC(CN2CCN(c3ccc(C(=O)NS(=O)(=O)c4ccc(NCC5CCOCC5)c([N+](=O)[O-])c4)c(Oc4cnc5[nH]ccc5c4)c3)CC2)=C(c2ccc(Cl)cc2)C1 [Venetoclax] + COc1cc(Nc2ncc3c(n2)-c2ccc(Cl)cc2C(c2c(F)cccc2OC)=NC3)ccc1C(=O)O [Alisertib] (first compound max 1 µM, 7x7, partner max 10 µM)	-0.0359	0.0421	-0.0338	0.0101	-0.006	-0.0636	-0.0072	0.0303	-0.0062	0.0736	-0.0125	-0.0501	0.0168	-0.0542	-0.0469	0.0326	0.0901	0.117	0.178	-0.0544
COc1cccc(OCCCN)c1-c1cc(Nc2cnc(C#N)cn2)n[nH]1 [Prexasertib] + CN(C)CCCOc1ccc(-c2ccc3ncc4c(c3c2)n(C2CCOCC2)c(=O)n4C)cn1 [AZD0156] (first compound max 1 µM, 7x7, partner max 1 µM)	0.0668	-0.0323	0.0756	0.0112	-0.0105	0.0275	-0.0133	-0.0253	-0.0548	-0.0139	-0.0134	-0.0909	-0.0133	0	-0.0364	-0.0496	-0.0341	0.142	-0.045	0.0159
CN(CCO)CC[C@H](CSc1ccccc1)Nc1ccc(S(=O)(=O)NC(=O)c2ccc(N3CCC([C@@H](O)c4ccccc4-c4ccc(Cl)cc4)CC3)cc2)cc1S(=O)(=O)C(F)(F)F [AZD4320] + C=CCn1c(=O)c2cnc(Nc3ccc(N4CCN(C)CC4)cc3)nc2n1-c1cccc(C(C)(C)O)n1 [AZD1775] (first compound max 1 µM, partner max 1 µM)	-0.0536	0.0838	-0.0178	0.0931	-0.0028	0.0142	-0.0219	0.0565	-0.0201	0.0652	0.0422	0.0361	-0.0143	-0.0187	0.0161	-0.0141	-0.0412	0.0014	0.141	0.0322
